Reference: patent US20030013640A1, “Integrin linked kinase modulation of leukocyte trafficking” (priority 2001, published 2003)

Tests used:
[1] = tested on: neutrophils (PMN); conditions: mouse, in vivo; cited from earlier work
[2] = tested on: leukocyte-endothelium interaction; test: Intravital microscopy of IL-1β-inflamed mouse mesenteric vascular bed; assay type: in vivo; conditions: 0.5 mg/kg s.c. 1 hour prior to IL-1β
Procedure: Mice are injected i.p. with 20 ng mouse recombinant IL-1β and left at liberty until the beginning of the experiment. Control animals receive sterile saline alone (1 ml per rat i.p.). Animals are anaesthetised with Inactin™, shaved on the neck and abdominal areas, and a tracheotomy is performed to facilitate breathing during the experimentation. Cautery incisions are made along the abdominal line, the mesentery is exposed and placed on a viewing plexiglass stage.
The preparation is mounted on a Zeiss Axioskop and is then transilluminated with a 12-V, 100-W halogen light source. […] A video time-date generator projects the time, date and stopwatch function onto the monitor.
Particular care is taken to assure observation of the mesenteric vascular bed exactly 2 h after injection of the cytokine. Mesenteries are superfused with thermostated (37° C.) bicarbonate-buffered solution (pH=7.4, gassed with 5% CO2/95% N2) at a rate of 2 ml/min. Three to five randomly selected post-capillary venules (diameter between 20-40 μm; length of at least 100 μm) are observed for each rat. Off-line analysis is performed to quantify the extent of cell adhesion (the number of adherent leukocytes in 100 μm length vessel wall), and leukocyte emigration (the number of cells that had emigrated out of the vessel up to 50 μm, 50 to 100 μm and 100-150 μm away from the vessel wall in parallel with 100 μm vessel segments).
IL-1β produces an intense response (>20 adherent cells per 100 μm length) that is modulated in part by endogenous PAF, ICAM-1 and the chemokine CINC. Therefore, agents that interfere with these mediators are identified using this technique. The effects of ILK inhibitors are determined in groups pre-treated with various concentrations of ILK inhibitors, in systemic administration doses in the range of 10-300 mg/kg, and administered every 1-4 hours prior to the cytokine, and up to the 2 hours after (timing dependent on pharmacokinetics of specific ILK inhibitor). Pre-treatment with ILK inhibitors is expected to result in a significant decrease in the number of leucocytes that are recruited.
Mouse mesenteric vascular bed was inflamed with interleukin-1β. The anti-inflammatory properties of KP-401-A (an ILK inhibitor) were compared to dexamethasone (positive control) as determined by intravital microscopy. […]
Cell rolling was measured by white blood cell velocity. Cell adhesion was quantified by counting, for each vessel, the number of adherent neutrophils in a 100 μm length. Leukocyte emigration from the microcirculation into the tissue was quantified by counting the number of cells that had emigrated up to 50 μm away from the wall of the 100 μm vessel segments. […]

[3] = tested on: neutrophils (PMN); test: Zymosan-induced PMN accumulation in mouse peritoneal cavity; assay type: in vivo
Procedure: (§1) Zymosan (an insoluble inflammogen derived from the yeast wall, Ajuebor et al. (1998) J. Leukoc. Biol. 63, 108-116) is injected i.p. in mice, control animals receive only sterile saline. Cellular influx into the peritoneal cavities is evaluated either at the 4 h time-point (for PMN) or at 24 h (for monocytes), by killing animals by CO2 exposure, and washing the cavities with 3 ml of sterile PBS supplemented with 3 mM EDTA and 25 U/ml heparin. Cells in the lavage fluids are stained in Turk's solution and differential counting is performed with a light microscope.
PMN influx ranges between 15-20 million cells per mouse, and is sensitive to anti-chemokine (i.e. antibodies to MCP-1) and anti-adhesion reagents (i.e. antibody to CD11b) as well as to more classical anti-inflammatory drugs, e.g. PAF antagonists; indomethacin, 5-lipoxygenase inhibitors, etc. The positive control is dexamethasone, which reduces zymosan-induced PMN influx with an approximate ED50 of 0.9 mg/kg s.c. (given 2 h prior to zymosan). The effects of ILK inhibitors are determined in groups pre-treated with various concentrations of ILK inhibitors, usually in systemic administration doses in the range of 10-300 mg/kg, and usually administered every 1-4 hours prior to the cytokine, and up to the time of euthanasia, (dependent on pharmacokinetics of specific ILK inhibitor).

[4] = tested on: monocytes; test: MCP-1-induced monocyte accumulation in peritoneal cavity; assay type: in vivo; conditions: sc, 0.1 mg/kg per mouse s.c. 1 h prior to MCP-1
Procedure: Monocyte chemoattractant protein-1 (MCP-1) given i.p. (1 μg) induces a selective accumulation of monocytes which is maximal at the 6 h post-injection (between 1-3 million monocytes per mouse), above the mild effect of the vehicle (0.25 ml of sterile saline) alone. After MCP-1 injection, animals are killed by CO2 exposure, and cavities washed with 3 ml of sterile PBS supplemented with 3 mM EDTA. Cells in the lavage fluids are stained in Turk's solution and differential counting is performed using a light microscope by a scientist unaware of the experimental groups. Monocyte influx is also confirmed by staining with F4/80 and FACS analysis. The effects of ILK inhibitors are determined in groups pre-treated with various concentrations of ILK inhibitor in systemic administration doses in the range of 10-300 mg/kg, administered every 1-4 hours prior to the cytokine, and up to the time of euthanasia (timing dependent on pharmacokinetics of specific ILK inhibitor). […] The positive control is dexamethasone which produces approximately 50% inhibition at the dose of 0.1 mg/kg per mouse given s.c. 1 h prior to MCP-1.

[5] = tested on: monocytes; test: Zymosan-induced monocyte accumulation in peritoneal cavity (24 h); assay type: in vivo; conditions: Mus musculus, sc, given 2 h prior to zymosan, 24 h time-point
Procedure: as §1
Monocyte accumulation at the 24 h time-point is in the order of 10-14 million cells per animal. The effect of known drugs on this parameter have not been well investigated, however it is sensitive to anti-chemokine therapy (i.e. antibodies to MCP-1) and to dexamethasone. The latter is the positive control with an approximate ED50 of 0.9 mg/kg s.c. (given 2 h prior to zymosan). The effects of ILK inhibitors are determined in groups pre-treated with various concentrations of ILK inhibitors, usually in systemic administration doses in the range of 10-300 mg/kg, and usually administered every 1-4 hours prior to the cytokine, and up to the 2 hours after (timing dependent on pharmacokinetics of specific ILK inhibitor).

[6] = tested on: neutrophils (PMN); test: IL-1β-induced neutrophil accumulation in mouse dorsal air-pouch; assay type: in vivo; conditions: sc, given 2 h prior, 4 h, read-out: ED50 for inhibition of IL-1β-induced PMN migration
Procedure: Acute accumulation of neutrophils (PMN) into a specific tissue site is a hallmark of the inflammatory response, and can be reproduced in vivo in the mouse following IL-1β injection into a preformed s.c. dorsal air-pouch. This model has the advantage of a quick (maximal at 4 h) and intense (between 5 and 8 million PMN per animal) response (Perretti & Flower (1993) J. Immunol. 150:992-999).
Six-day-old air-pouches are formed on the back of mice by injection of 2.5 ml of air on day 0 and day 3. On day 6, 5 ng of murine recombinant IL-1β is injected into the air-pouch, or vehicle only, i.e. 0.5% carboxymethylcellulose in PBS. Cellular influx into the air-pouches is evaluated at the 4 h time-point, by killing animals by CO2 exposure, and washing the cavities with 2 ml of sterile PBS supplemented with 3 mM EDTA and 25 U/ml heparin. Cells in the lavage fluids are stained in Turk's solution and differential counting is done with a light microscope.
This model is not sensitive to indomethacin and BWA4C, but is sensitive to PAF antagonists, anti-adhesion molecule reagents, tachykinin NK1 antagonists, etc. The effects of ILK inhibitors are determined in groups pre-treated with various concentrations of ILK inhibitors in systemic administration doses in the range of 10-300 mg/kg, administered every 1-4 hours prior to the cytokine, and up to the time of euthanasia.

[7] = tested on: neutrophils (PMN); conditions: classical anti-inflammatory drugs; cited from earlier work

| SMILES | sensitivity of IL-1β air-pouch model to the drug [1] | Adherent Cells (no. 100 μm) ([2]; 2 hours after IL-1β) | Emigrated Cells (no. 50 × 100 μm^2) ([2]; 2 hours after IL-1β) | Cell Flux (no. per min) ([2]; observed 2 hours after IL-1β) | Cell Rolling (VWBC) ([2]; white blood cell velocity, 2 hours after IL-1β) | ED50 ([3]; Mus musculus, Neutrophil, sc, given 2 h prior to zymosan, 4 h time-point, read-out: ED50 for reduction of zymosan-induced PMN influx) [mg/kg] | PMN Accumulation (× 10^6 cells) ± SE ([3]; dose 1.5 mg/kg s.c., 60 min prior to and 60 min following i.p. Zymosan 1 mg/mouse, measured 4 h later, mean ± SE, n = 5) | inhibition at 0.1 mg/kg [4] [%] | ED50 [5] [mg/kg] | ED50 [6] [mg/kg] | sensitivity of zymosan-induced PMN influx to the drug [7] |
| --- | --- | --- | --- | --- | --- | --- | --- | --- | --- | --- | --- |
| CC(=O)N(O)C/C=C/c1cccc(Oc2ccccc2)c1 [BWA4C] | not sensitive |  |  |  |  |  |  |  |  |  |  |
| C[C@@H]1C[C@H]2[C@@H]3CCC4=CC(=O)C=C[C@]4(C)[C@@]3(F)[C@@H](O)C[C@]2(C)[C@@]1(O)C(=O)CO [dexamethasone] |  | 1.4 ± 0.1 | 1.8 ± 0.3 | 7.0 ± 1.5 | 17 ± 2.5 | ~0.9 | 4.0 ± 0.79 × 10^6 cells | ~50 | ~0.9 | ~0.15 |  |
| COc1ccc2c(c1)c(CC(=O)O)c(C)n2C(=O)c1ccc(Cl)cc1 [indomethacin] | not sensitive |  |  |  |  |  |  |  |  |  | sensitive |
